Experimental data as given in publication PMC10536132, “Arginine Gemini-Based Surfactants for Antimicrobial and Antibiofilm Applications: Molecular Interactions, Skin-Related Anti-Enzymatic Activity and Cytotoxicity” (Molecules, 2023).
Marks after values point to notes of the source that are not given here.

Legend:
[1] = test system: Collagenase from Clostridium histolyticum (ChC); assay: Collagenase inhibitory activity assay (FALGPA substrate); type: biochemical; settings: approximately 25 μg of sample in the reaction mixture, 15 min preincubation
Method: The inhibition of collagenase followed the methodology proposed by Thring et al.. First, a solution containing the surfactants at 1000 μg/mL was prepared. An aliquot of 40 μL of each sample was used in the assay. Collagenase from Clostridium histolyticum (ChC) was dissolved in tricine buffer (50 mM, pH 8.0) immediately before use at an initial concentration of 0.35 U/mL. The synthetic substrate N-[3- (2-furyl) acryloyl]-Leu-Gly-Pro-Ala (FALGPA) (40 μL) was dissolved in the kit buffer (60 μL) according to the supplier information. The samples of C3(LA)2, C6(LA)2 and C9(LA)2 were incubated with the enzyme for 15 min before the substrate addition. The final reaction mixture contained tricine buffer, 0.8 mM FALGPA, 0.1 U of ChC and approximately 25 μg of each surfactant. Ultrapure water was used as a negative control, while the positive control was EGCG solution, prepared at the same concentration of the surfactants. The absorbance at λ = 345 nm was measured immediately after the substrate incorporation and continuously during 20 min in kinetic mode using an Elx800 Microplate Reader Biotek® (Winooski, VT, USA). The collagenase inhibitory activity of each sample was determined in triplicate, according to the following equation:(1) Collagenase inhibitory activity %=A1−A2/A1×100 where A1 and A2 represent the absorbance in the absence and presence of sample, respectively.

[2] = target: porcine pancreatic elastase (Sus scrofa, UniProt P00772); assay: Elastase inhibitory assay; type: biochemical; settings: 40 µL of 1000 µg/mL stock; EGCG 250 μM
Sequence of porcine pancreatic elastase (P00772 27-266): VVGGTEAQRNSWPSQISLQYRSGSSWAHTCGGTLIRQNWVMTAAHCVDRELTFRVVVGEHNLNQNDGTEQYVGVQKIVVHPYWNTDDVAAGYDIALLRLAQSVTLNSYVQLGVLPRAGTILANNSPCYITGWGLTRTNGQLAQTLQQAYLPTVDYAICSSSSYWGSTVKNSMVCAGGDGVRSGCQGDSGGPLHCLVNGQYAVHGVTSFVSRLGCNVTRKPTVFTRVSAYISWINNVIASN
Method: The elastase inhibition was tested according to the method described by […] et al.. First, a stock solution of each surfactant at 1000 μg/mL was prepared in sterile ultrapure water. A stock solution of porcine pancreatic elastase at 3.33 mg/mL in sterile ultrapure water was also prepared. The substrate […] (Ala) 3-p-nitroanilide was dissolved in 0.2 mM Tris-HCl buffer solution (pH 8.0). The samples (40 μL) were then diluted and incubated together with the enzyme for 15 min prior to the substrate addition. Negative control was sterile ultrapure water, while EGCG (250 μM or 0.114 mg/mL) was used as the positive control. The absorbance at λ = 410 nm was measured immediately after the substrate addition and continuously during the next 2 h using an Elx800 Microplate Reader (Biotek®). […] The anti-elastase activity (in %), determined in triplicate, was calculated according to the following equation:(2) Elastase inhibitory activity %=A1-A2/A1×100 where A1 and A2 represent the absorbance in the absence and presence of the testing samples, respectively.

bovine hyaluronidase = assay: Hyaluronidase inhibitory activity; type: biochemical; settings: positive control
Method: The hyaluronidase inhibitory activity was performed according to the method used by Altinyay et al. with some modifications. Briefly, a work solution containing bovine hyaluronidase (7900 units/mL) in 0.1 M acetate buffer (pH 3.6) was prepared. Fifty microliters of the work solution were mixed 1:1 with the surfactants’ solution in 5% DMSO. For the negative control, 50 μL of 5% DMSO was used, while EGCG was used as positive control. After 20 min of incubation at 37 °C, 50 μL of calcium chloride (12.5 mM) was added to the mixture and again incubated for 20 min at 37 °C. At that point, 250 μL sodium hyaluronate (1.2 mg/mL) was added and incubated for 40 min at 37 °C. After incubation, the mixture was treated with 50 μL of 0.4 M NaOH and 100 μL of 0.2 M sodium borate and then incubated for 3 min in a boiling water bath. After cooling to room temperature, 1.4 mL of p-dimethylaminobenzaldehyde solution was added to the reaction mixture, being further incubated at 37 °C for 20 min. The resulting colored solution was measured at λ = 585 nm (PerkinElmer-Lambda 35, Brazil). The hyaluronidase inhibitory activity of each sample was calculated according to the following formula:(3) Hyaluronidase inhibitory activity %=A1−A2/A1×100 where A1 and A2 represent the absorbance in the absence and presence of the testing sample, respectively.

[3] = test system: methicillin-resistant Staphylococcus aureus (MRSA) ATCC 43300 biofilm; assay: Biofilm eradication, crystal violet; type: cell-based; settings: at 32 μg/mL
Method: (§1) The ability of these geminis to disperse and eradicate biofilms once formed on the propylene surfaces of the microtiter plates was evaluated using the same bacterial strains. […] The susceptibility of both biofilms against the tested surfactants was similar. At a low concentration of 32 μg/mL, C3(CA)2 and C3(LA)2 were able to eradicate around 60–70% of preformed biofilm; however, at this concentration, the […] hydrophobic compound, C3(OA)2, eradicated less than 30% of biofilm. At high concentrations, the eradication percentage is similar for all alkyl chains. […] In this case, at low concentrations, there is not a clear dependence between the antibiofilm properties and the spacer; however, at a high concentration, the best effectivity was obtained for the longer spacer chains.
(§2) Antibiofilm activity was assessed against biofilm-producing strains of methicillin-resistant Staphylococcus aureus (MRSA) ATCC 43300 and Pseudomonas aeruginosa PAO1. Biofilm inhibition and eradication capacities of the gemini surfactants were evaluated against adherent bacterial biofilms grown in 96-well microtiter plates. Bacteria were grown overnight in tryptic soy agar at 37 °C for 24 h. The bacteria were suspended in lysogeny broth with glucose (1%) at 1.5 × 10^8 CFU/mL.
(§3) Biofilm eradication procedure: For mature biofilm formation, 200 μL of the diluted bacterial suspension was added to each well in a 96-well microplate and incubated at 37 °C for 24 h. The wells were gently rinsed with phosphate-buffered saline (PBS) and 200 μL of the corresponding gemini surfactant solution was added to each well and incubated again at 37 °C for 24 h. Two-fold serial dilutions of the gemini surfactant were used (4–128 μg/mL). After the plates were air dried, the biofilms were stained with 50 μL of 0.1 of % crystal violet for 25 min. The plates were rinsed with water and then 150 μL of 96% ethanol containing 10% acetic acid was added to all 96-well plates to dissolve the remaining crystal violet-stained biofilm. The absorbance value was recorded at 570 nm. Each assay was conducted at least three times and the results were averaged.

[4] = test system: Pseudomonas aeruginosa PAO1 biofilm; assay: Biofilm eradication, crystal violet; type: cell-based; settings: P. aeruginosa PAO1, at 32 μg/mL
Method: as §1, §2, §3

[5] = test system: Gram-positive and Gram-negative bacteria; assay: Minimum inhibitory concentration (MIC), broth microdilution; type: cell-based; settings: planktonic bacteria, 24 h at 37 °C, values only in Figure 2
From the text: The Gram-positive bacteria tested include some problematic microorganisms such us L. monocytogenes; these bacteria cause listeriosis, a serious disease that has grown considerably in industrialized countries due to the increased ratio of immunosuppressed persons and the extensive use of refrigerated food. We have also tested the effectivity of these surfactants against methicillin-resistant Staphylococcus aureus (MRSA), which is known as a major cause of hospital-acquired infections and, at this time, is a remarkable public health problem. […] For comparison, this figure also includes the MIC values of a LAM (lauroyl arginine methyl ester) surfactant that can be considered the single-stranded homologue of these geminis and the BAC (benzalkonium ammonium chloride), a quaternary ammonium surfactant widely used as antiseptic.
Antimicrobial tests were carried out against the following microorganisms: Bacillus subtilis ATCC 6633, Staphylococcus epidermidis ATCC 12228, Staphylococcus aureus ATCC 29213, Listeria monocytogenes ATCC 15313, Enterococcus faecalis ATCC 29212, Escherichia coli ATCC 25922, Acinetobacter baumannii ATCC 19606, Klebsiella aerogenes ATCC 13048, methicillin-resistant Staphylococcus aureus ATCC 43300 and Pseudomonas aeruginosa PAO1. […] The growth of the microorganisms was determined visually after incubation for 24 h at 37 °C. […]

[6] = Water solubility (qualitative); type: physicochemical; settings: qualitative statement
From the text: In all cases, the pKap values are smaller than those described by Fitch, as well as those cited in many biochemistry textbooks. The presence of fatty chains in arginine surfactants induces the formation of aggregates in which the positive charges are close to each other. As a result, the repulsion between these charges induces the release of protons, thus increasing the acid character of the compound. The cmc is mainly governed by the hydrophobic content of the molecules. For the same spacer chain, the cmc drastically decreases as the alkyl chain increases. For the same alkyl chain of 12 carbon atoms, the cmc slightly diminishes as the number of the methylene groups in the spacer increases. Unconventional aggregation behavior and two cmcs were inferred from different techniques. The first cmcs, inferred primarily from tension data, are between 0.002 and 0.005 mM. Fluorescence and conductivity experiments indicated a second cmc at concentrations two orders of magnitude higher than that from surface tension (0.3–0.6 mM). The low cmc obtained by surface tension measurements was ascribed to non-globular aggregates with small aggregation numbers larger than two or three, given the nearly constant surface tension above these cmc. The surface tension values at the first cmc were in the same order for all gemini surfactants. […]

[7] = set-up: method as in doi:10.1021/la981295l; settings: cited from earlier work
[8] = set-up: method as in doi:10.1021/la981295l; settings: cited from earlier work; remark: listed apart in the source
[9] = set-up: method as in doi:10.1021/la981295l; settings: cited from earlier work; remark: listed apart in the source

Row | SMILES | anti-collagenase activity (inhibition) [1] | anti-elastase activity (inhibition) [2] | hyaluronidase inhibitory activity (bovine hyaluronidase) | preformed biofilm eradicated [3] | preformed biofilm eradicated [4] | antimicrobial activity (MIC), in words [5] | water solubility [6] | CMC (mM) Fluorescence [7] | CMC (mM) Conductivity [8] | CMC (mM) Surface Tension [9] | γcmc ([9]; surface tension at the cmc)
1 | O=C(O[C@@H]1Cc2c(O)cc(O)cc2O[C@@H]1c1cc(O)c(O)c(O)c1)c1cc(O)c(O)c(O)c1 [EGCG, epigalocatequin-3-galate, reference compound] | 54.2% | 67.3% | 13% |  |  |  |  |  |  |  | 
2 | CCCCCCCCCC(=O)NC(CCCNC(=N)N)C(=O)NCCCNC(=O)C(CCCNC(=N)N)NC(=O)CCCCCCCCC (centres unmarked) [C3(CA)2] |  |  |  | 60–70% | 60–70% | most active against all tested microorganisms | very good water solubility | 3 * mM | 2 * mM | 0.043 * mM | 32 * mN/m
